Reference: patent publication US20070149465A1, “COMPOSITIONS AND METHODS FOR PREVENTION AND TREATMENT OF CACHEXIA” (priority 2005, published 2007)
Like-named read-outs stand apart in the source and are kept apart here.

Columns and labels:
[1] = tested on: Saline-inoculated rats; assay: Rat AH130 experiments, saline-inoculated control rats given drug; type: in vivo, female Wistar rats
Method: (§1) Following the method of Busquets et al (Busquets S, et al: Cancer Res 64:6725-31, 2004), female Wistar rats were inoculated (Day 0) intra-peritoneally (i.p.) with 2×10^7 cells/animal of Yoshida AH-130 ascites hepatoma (AH) cells. Control animals were inoculated with an equivalent amount of sterile saline solution. […] The animals were sacrificed on Day 5. Upon sacrifice, wet weights of heart and gastrocnemius muscle were determined. Carcass (after gastrocnemius, heart, and ascites removal) weight was also determined upon sacrifice.
(§2) Treatment Group=Inoculation Type/Vehicle, or Treatment Group=Inoculation Type/F(x)R(y) where, Inoculation Type is either AH or Saline, F is formoterol fumarate, R is roxithromycin, and the parenthetical values are formoterol fumarate and roxithromycin doses (i.p. in mg/kg).

[2] = Osmolality of formoterol filtrate in citrate buffers; type: physicochemical; conditions: 25° C.
[3] = for Formoterol solubility: 25° C.
[4] = tested on: AH-inoculated rats; assay: Rat AH130 Ascites Hepatoma Model of Cancer Cachexia, AH-inoculated rats; type: in vivo, female Wistar rats; conditions: for Carcass Weights Mean / Gastrocnemius Weights Mean / Heart Weights Mean: normalized to 100 g Day 5 Total Body Weight
Method: as §1, §2

[5] = cited from earlier work; for estimated shelf-life: compositions of Banerjee et al.; for rate constant of decomposition: 60° C., buffer 5 mM, ionic strength 0.05
[6] = Exp 2 Group 10, Saline, F 1, R 0 mg/kg i.p., Day 5, normalized to 100 g Day 5 Total Body Weight
[7] = Exp 1 Group 3, AH, F 1, R 0 mg/kg i.p., Day 5
[8] = Exp 2 Group 7, AH, F 1, R 0 mg/kg i.p., Day 5
[9] = Exp 3 Group 13, AH, F 1, R 0 mg/kg i.p., Day 5
[10] = Exp 4 Group 18, AH, F 1, R 0 mg/kg i.p., Day 5, sample weight normalized to 100 g Day 5 Total Body Weight

Structure (SMILES): COc1ccc(C[C@@H](C)NC[C@H](O)c2ccc(O)c(NC=O)c2)cc1.COc1ccc(C[C@@H](C)NC[C@H](O)c2ccc(O)c(NC=O)c2)cc1.O=C(O)/C=C/C(=O)O [formoterol fumarate]
- Carcass Weights Mean [1, 6]: 97.6 g
- Gastrocnemius Weights Mean [1, 6]: 0.613 g
- Heart Weights Mean [1, 6]: 0.410 g
- gastrocnemius muscle weights compared with Saline/vehicle group ([1]; Experiment 2, Saline/F(1)R(0) group): approximately the same
- Formoterol Filtrate osmolality ([2]; 20 mM citrate, pH 4): 49 mOsm/kG
- Formoterol Filtrate osmolality ([2]; 20 mM citrate, pH 5): 56 mOsm/kG
- Formoterol Filtrate osmolality ([2]; 20 mM citrate, pH 6): 60 mOsm/kG
- Formoterol Filtrate osmolality ([2]; 20 mM citrate, pH 7): 66 mOsm/kG
- Formoterol Filtrate osmolality ([2]; 50 mM citrate, pH 4): 113 mOsm/kG
- Formoterol Filtrate osmolality ([2]; 50 mM citrate, pH 5): 130 mOsm/kG
- Formoterol Filtrate osmolality ([2]; 50 mM citrate, pH 6): 140 mOsm/kG
- Formoterol Filtrate osmolality ([2]; 50 mM citrate, pH 7): 146 mOsm/kG
- Formoterol Filtrate osmolality ([2]; 100 mM citrate, pH 4): 205 mOsm/kG
- Formoterol Filtrate osmolality ([2]; 100 mM citrate, pH 5): 249 mOsm/kG
- Formoterol Filtrate osmolality ([2]; 100 mM citrate, pH 6): 275 mOsm/kG
- Formoterol Filtrate osmolality ([2]; 100 mM citrate, pH 7): 278 mOsm/kG
- Formoterol Filtrate osmolality ([2]; 200 mM citrate, pH 4): 392 mOsm/kG
- Formoterol Filtrate osmolality ([2]; 200 mM citrate, pH 5): 473 mOsm/kG
- Formoterol Filtrate osmolality ([2]; 200 mM citrate, pH 6): 527 mOsm/kG
- Formoterol Filtrate osmolality ([2]; 200 mM citrate, pH 7): 543 mOsm/kG
- Formoterol solubility ([3]; 20 mM citrate, pH 4): 2710 µg/mL
- Formoterol solubility ([3]; 20 mM citrate, pH 5): 2350 µg/mL
- Formoterol solubility ([3]; 20 mM citrate, pH 6): 2470 µg/mL
- Formoterol solubility ([3]; 20 mM citrate, pH 7): 2330 µg/mL
- Formoterol solubility ([3]; 50 mM citrate, pH 4): 3690 µg/mL
- Formoterol solubility ([3]; 50 mM citrate, pH 5): 2770 µg/mL
- Formoterol solubility ([3]; 50 mM citrate, pH 6): 2780 µg/mL
- Formoterol solubility ([3]; 50 mM citrate, pH 7): 2920 µg/mL
- Formoterol solubility ([3]; 100 mM citrate, pH 4): 3010 µg/mL
- Formoterol solubility ([3]; 100 mM citrate, pH 5): 2690 µg/mL
- Formoterol solubility ([3]; 100 mM citrate, pH 6): 2870 µg/mL
- Formoterol solubility ([3]; 100 mM citrate, pH 7): 2600 µg/mL
- Formoterol solubility ([3]; 200 mM citrate, pH 4): 3690 µg/mL
- Formoterol solubility ([3]; 200 mM citrate, pH 5): 2900 µg/mL
- Formoterol solubility ([3]; 200 mM citrate, pH 6): 2720 µg/mL
- Formoterol solubility ([3]; 200 mM citrate, pH 7): 2840 µg/mL
- solubility ([3]; citrate buffer concentrations between 20 and 200 mM at pH 4 to pH 7): > 1000 µg/mL
- Carcass Weights Mean [4, 7]: 95.35 g
- Gastrocnemius Weights Mean [4, 7]: 0.551 g
- Heart Weights Mean [4, 7]: 0.337 g
- Carcass Weights Mean [4, 8]: 89.7 g
- Gastrocnemius Weights Mean [4, 8]: 0.499 g
- Heart Weights Mean [4, 8]: 0.348 g
- Carcass Weights Mean [4, 9]: 93.1 g
- Gastrocnemius Weights Mean [4, 9]: 0.489 g
- Heart Weights Mean [4, 9]: 0.376 g
- Carcass Mean [4, 10]: 97.8
- Gastrocnemius Mean [4, 10]: 0.502
- Heart Mean [4, 10]: 0.367
- gastrocnemius muscle loss compared with AH/vehicle group ([4]; Experiment 1, AH/F(1)R(0) group): significantly less
- estimated shelf-life ([5]; 5° C.): about 6.2 years
- estimated shelf-life ([5]; 25° C.): about 7.5 months
- rate constant of decomposition ([5]; pH 3): approximately 0.62 day^1
- rate constant of decomposition ([5]; pH 4): ~0.11 day^1
- rate constant of decomposition ([5]; pH 5): ~0.044 day^1
- rate constant of decomposition ([5]; pH 7): ~0.55 day^1
